# Results taken from the kinase profiling compilation of Christmann-Franck et al. (2016).
# Legend:
# Conditions in all cases: compound 10.0 µM
# TAOK1 (human) = TAOK1 (human) (UniProt Q7L7X3)
# LATS2 (human) = LATS2 (human) (UniProt Q9NRM7)
# RPS6KA2 KD1 (human) = RPS6KA2 KD1 (human) (UniProt Q15349)
# MAP2K7 (human) = MAP2K7 (human) (UniProt O14733)
# NEK5 (human) = NEK5 (human) (UniProt Q6P3R8)
# PRPF4B (human) = PRPF4B (human) (UniProt Q13523)
# MAP2K5 (human) = MAP2K5 (human) (UniProt Q13163)
# MARK2 (human) = MARK2 (human) (UniProt Q7KZI7)
# PDPK1 (human) = PDPK1 (human) (UniProt O15530)
# CDK17 (human) = CDK17 (human) (UniProt Q00537)
# MAPK9 (human) = MAPK9 (human) (UniProt P45984)
# Sequence of MAPK9 (human) (P45984 whole entry, looked up): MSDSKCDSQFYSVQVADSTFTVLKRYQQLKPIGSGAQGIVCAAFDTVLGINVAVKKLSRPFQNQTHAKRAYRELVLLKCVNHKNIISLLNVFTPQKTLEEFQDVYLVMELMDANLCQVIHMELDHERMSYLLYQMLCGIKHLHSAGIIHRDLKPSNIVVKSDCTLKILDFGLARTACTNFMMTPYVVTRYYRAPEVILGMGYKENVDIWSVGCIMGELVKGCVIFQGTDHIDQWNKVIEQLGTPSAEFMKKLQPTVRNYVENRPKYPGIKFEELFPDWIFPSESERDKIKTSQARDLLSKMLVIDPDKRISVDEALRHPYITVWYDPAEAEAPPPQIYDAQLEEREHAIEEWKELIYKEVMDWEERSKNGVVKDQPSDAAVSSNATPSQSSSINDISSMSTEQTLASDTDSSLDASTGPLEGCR
# MAP3K11 (human) = MAP3K11 (human) (UniProt Q16584)
# Sequence of MAP3K11 (human) (Q16584 whole entry, looked up): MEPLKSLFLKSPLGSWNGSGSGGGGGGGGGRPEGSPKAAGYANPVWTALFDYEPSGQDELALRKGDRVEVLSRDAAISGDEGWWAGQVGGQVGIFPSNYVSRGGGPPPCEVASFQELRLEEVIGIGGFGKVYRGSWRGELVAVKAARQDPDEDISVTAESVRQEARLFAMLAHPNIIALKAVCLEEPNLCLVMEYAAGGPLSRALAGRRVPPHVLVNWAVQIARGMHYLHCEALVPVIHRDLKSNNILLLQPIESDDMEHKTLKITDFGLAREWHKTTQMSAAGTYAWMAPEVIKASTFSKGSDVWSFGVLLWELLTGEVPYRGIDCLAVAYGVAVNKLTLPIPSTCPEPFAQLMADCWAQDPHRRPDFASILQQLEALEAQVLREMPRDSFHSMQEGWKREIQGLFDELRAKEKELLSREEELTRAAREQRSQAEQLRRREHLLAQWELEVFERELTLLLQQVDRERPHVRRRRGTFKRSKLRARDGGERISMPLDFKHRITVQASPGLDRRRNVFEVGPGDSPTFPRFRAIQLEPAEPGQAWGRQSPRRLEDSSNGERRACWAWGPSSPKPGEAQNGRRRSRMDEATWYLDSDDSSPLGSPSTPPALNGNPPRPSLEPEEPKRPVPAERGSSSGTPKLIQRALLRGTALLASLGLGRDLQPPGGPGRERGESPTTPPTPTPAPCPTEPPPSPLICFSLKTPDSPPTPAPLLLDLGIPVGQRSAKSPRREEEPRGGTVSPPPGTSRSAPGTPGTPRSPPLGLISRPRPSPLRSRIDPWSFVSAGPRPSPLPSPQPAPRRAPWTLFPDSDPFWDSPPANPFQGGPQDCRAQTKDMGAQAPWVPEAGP
# HIPK4 (human) = HIPK4 (human) (UniProt Q8NE63)
# FGFR4 (human) = FGFR4 (human) (UniProt P22455)
# ERN1 (human) = ERN1 (human) (UniProt O75460)
# YSK4 (human) = YSK4 (human) (UniProt Q56UN5)
# MYO3A (human) = MYO3A (human) (UniProt Q8NEV4)
# NUAK2 (human) = NUAK2 (human) (UniProt Q9H093)
# SRPK1 (human) = SRPK1 (human) (UniProt Q96SB4)
# CHEK2 (human) = CHEK2 (human) (UniProt O96017)
# ULK3 (human) = ULK3 (human) (UniProt Q6PHR2)
# FYN (human) = FYN (human) (UniProt P06241)
# DAPK2 (human) = DAPK2 (human) (UniProt Q9UIK4)
# CSNK1G1 (human) = CSNK1G1 (human) (UniProt Q9HCP0)
# RPS6KA1 KD2 (human) = RPS6KA1 KD2 (human) (UniProt Q15418)
# Sequence of RPS6KA1 KD2 (human) (Q15418 whole entry, looked up): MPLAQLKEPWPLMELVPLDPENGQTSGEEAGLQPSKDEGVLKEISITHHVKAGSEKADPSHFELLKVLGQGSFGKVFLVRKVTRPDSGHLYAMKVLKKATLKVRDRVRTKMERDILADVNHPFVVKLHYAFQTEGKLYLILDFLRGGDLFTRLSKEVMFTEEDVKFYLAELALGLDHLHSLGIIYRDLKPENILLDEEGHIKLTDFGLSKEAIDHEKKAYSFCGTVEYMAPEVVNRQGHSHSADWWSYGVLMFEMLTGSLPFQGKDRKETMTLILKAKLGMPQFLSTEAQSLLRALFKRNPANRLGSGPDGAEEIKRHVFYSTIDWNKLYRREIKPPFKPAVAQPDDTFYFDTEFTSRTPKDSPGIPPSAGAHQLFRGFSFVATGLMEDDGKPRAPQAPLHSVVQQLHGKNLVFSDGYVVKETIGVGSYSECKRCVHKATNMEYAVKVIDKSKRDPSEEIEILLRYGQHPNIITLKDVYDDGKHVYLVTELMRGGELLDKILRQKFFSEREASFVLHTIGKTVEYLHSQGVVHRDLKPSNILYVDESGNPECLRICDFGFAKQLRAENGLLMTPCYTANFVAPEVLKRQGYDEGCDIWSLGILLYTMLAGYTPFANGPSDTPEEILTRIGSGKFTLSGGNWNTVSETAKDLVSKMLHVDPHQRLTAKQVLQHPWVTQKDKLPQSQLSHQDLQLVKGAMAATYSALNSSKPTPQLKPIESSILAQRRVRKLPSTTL
# STK3 (human) = STK3 (human) (UniProt Q13188)
# MAPK12 (human) = MAPK12 (human) (UniProt P53778)
# MAPK1 (human) = MAPK1 (human) (UniProt P28482)
# STK16 (human) = STK16 (human) (UniProt O75716)
# Sequence of STK16 (human) (O75716 whole entry, looked up): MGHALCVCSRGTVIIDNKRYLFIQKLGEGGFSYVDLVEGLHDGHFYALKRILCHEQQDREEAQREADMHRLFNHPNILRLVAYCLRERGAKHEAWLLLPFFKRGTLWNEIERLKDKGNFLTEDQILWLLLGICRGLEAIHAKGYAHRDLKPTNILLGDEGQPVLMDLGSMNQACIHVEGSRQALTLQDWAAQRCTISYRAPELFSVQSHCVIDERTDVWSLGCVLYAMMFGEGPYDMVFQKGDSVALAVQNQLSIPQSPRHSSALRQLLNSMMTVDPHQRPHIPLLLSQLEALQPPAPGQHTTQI
# HIPK1 (human) = HIPK1 (human) (UniProt Q86Z02)
# [1] = tested on: KIT (human), P10721 [V559D/V654A]
# Sequence of KIT (human), P10721 [V559D/V654A] (P10721 whole entry V559D/V654A, looked up): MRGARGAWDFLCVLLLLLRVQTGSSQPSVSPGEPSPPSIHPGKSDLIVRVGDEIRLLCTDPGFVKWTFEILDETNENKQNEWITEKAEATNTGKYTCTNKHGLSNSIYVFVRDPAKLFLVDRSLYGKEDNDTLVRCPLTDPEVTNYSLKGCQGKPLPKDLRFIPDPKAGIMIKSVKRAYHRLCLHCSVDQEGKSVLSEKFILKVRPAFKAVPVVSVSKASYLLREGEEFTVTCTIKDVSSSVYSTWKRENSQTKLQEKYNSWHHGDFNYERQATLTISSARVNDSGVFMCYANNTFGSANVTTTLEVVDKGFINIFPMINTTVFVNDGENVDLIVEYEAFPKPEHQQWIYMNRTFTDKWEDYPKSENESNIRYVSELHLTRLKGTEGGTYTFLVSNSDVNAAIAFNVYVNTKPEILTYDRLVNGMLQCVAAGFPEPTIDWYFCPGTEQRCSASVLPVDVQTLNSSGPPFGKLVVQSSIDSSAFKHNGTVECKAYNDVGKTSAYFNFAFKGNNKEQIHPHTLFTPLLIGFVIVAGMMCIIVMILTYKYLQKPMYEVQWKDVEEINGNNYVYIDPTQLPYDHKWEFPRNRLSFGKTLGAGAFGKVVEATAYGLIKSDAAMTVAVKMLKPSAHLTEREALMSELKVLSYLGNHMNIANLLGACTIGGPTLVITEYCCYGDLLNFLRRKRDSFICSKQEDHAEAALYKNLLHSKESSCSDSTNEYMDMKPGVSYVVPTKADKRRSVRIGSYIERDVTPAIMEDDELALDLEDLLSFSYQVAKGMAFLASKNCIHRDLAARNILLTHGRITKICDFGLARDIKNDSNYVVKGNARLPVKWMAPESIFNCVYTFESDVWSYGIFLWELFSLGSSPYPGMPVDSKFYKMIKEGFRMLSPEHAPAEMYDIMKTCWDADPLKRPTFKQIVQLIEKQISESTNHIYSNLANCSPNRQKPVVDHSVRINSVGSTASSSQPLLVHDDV
# RPS6KA6 KD2 (human) = RPS6KA6 KD2 (human) (UniProt Q9UK32)
# [2] = tested on: FLT3 (human), P36888 [K663Q]
# AURKC (human) = AURKC (human) (UniProt Q9UQB9)
# HIPK3 (human) = HIPK3 (human) (UniProt Q9H422)
# MARK4 (human) = MARK4 (human) (UniProt Q96L34)
# LIMK2 (human) = LIMK2 (human) (UniProt P53671)
# PDGFRB (human) = PDGFRB (human) (UniProt P09619)
# MAP2K1 (human) = MAP2K1 (human) (UniProt Q02750)
# MAPK4 (human) = MAPK4 (human) (UniProt P31152)
# Sequence of MAPK4 (human) (P31152 whole entry, looked up): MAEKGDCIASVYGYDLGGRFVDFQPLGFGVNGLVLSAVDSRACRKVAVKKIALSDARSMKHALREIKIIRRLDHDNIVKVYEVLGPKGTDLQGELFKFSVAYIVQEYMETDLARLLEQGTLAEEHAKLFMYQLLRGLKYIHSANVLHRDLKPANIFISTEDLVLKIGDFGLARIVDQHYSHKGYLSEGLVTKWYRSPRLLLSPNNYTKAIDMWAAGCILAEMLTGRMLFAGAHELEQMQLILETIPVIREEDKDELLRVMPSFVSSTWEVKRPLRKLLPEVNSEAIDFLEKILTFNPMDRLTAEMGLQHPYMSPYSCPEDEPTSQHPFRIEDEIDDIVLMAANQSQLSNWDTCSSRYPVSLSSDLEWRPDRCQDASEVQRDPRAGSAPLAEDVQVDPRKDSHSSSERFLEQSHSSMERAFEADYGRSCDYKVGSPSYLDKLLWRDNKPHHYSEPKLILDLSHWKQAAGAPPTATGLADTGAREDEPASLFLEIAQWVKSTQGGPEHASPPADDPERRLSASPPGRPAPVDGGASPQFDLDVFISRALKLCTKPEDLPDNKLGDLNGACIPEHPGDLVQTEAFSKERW
# YES1 (human) = YES1 (human) (UniProt P07947)
# Sequence of TAOK1 (human) (Q7L7X3 whole entry, looked up): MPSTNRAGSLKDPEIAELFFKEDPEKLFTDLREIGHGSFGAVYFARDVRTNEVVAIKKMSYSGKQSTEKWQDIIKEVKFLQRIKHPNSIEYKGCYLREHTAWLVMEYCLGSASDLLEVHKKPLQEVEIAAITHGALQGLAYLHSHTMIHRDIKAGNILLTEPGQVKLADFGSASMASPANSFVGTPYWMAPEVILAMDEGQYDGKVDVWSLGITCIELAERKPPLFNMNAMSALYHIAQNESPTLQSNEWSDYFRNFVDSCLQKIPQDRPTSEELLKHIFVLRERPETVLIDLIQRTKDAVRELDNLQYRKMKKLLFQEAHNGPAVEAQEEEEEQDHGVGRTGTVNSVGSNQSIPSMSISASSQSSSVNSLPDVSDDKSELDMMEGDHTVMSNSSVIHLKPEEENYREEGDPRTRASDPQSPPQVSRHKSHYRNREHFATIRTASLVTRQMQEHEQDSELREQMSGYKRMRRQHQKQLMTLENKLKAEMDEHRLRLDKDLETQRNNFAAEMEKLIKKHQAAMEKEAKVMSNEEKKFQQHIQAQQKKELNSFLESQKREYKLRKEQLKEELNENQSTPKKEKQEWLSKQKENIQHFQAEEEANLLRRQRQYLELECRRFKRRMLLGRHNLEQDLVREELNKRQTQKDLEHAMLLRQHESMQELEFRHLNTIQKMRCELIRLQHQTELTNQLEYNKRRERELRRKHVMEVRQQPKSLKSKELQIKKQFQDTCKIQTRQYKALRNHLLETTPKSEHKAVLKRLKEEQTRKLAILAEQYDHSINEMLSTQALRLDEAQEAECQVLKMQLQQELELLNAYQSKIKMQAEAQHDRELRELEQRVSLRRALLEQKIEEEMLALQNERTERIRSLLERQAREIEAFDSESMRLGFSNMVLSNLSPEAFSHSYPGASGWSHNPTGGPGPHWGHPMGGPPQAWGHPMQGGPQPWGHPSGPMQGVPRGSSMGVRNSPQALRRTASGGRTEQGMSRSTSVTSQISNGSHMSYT
compound,measurement,setting,value
CNC(=O)c1cc(Oc2ccc(NC(=O)Nc3ccc(Cl)c(C(F)(F)F)c3)cc2)ccn1,per cent of control,TAOK1 (human),12%
same,per cent of control,LATS2 (human),100%
same,per cent of control,RPS6KA2 KD1 (human),61%
same,per cent of control,MAP2K7 (human),92%
same,per cent of control,NEK5 (human),100%
same,per cent of control,PRPF4B (human),94%
same,per cent of control,MAP2K5 (human),0.35%
same,per cent of control,MARK2 (human),67%
same,per cent of control,PDPK1 (human),94%
same,per cent of control,CDK17 (human),13%
same,per cent of control,MAPK9 (human),21%
same,per cent of control,MAP3K11 (human),74%
same,per cent of control,HIPK4 (human),4.5%
same,per cent of control,FGFR4 (human),43%
same,per cent of control,ERN1 (human),92%
same,per cent of control,YSK4 (human),0%
same,per cent of control,MYO3A (human),44%
same,per cent of control,NUAK2 (human),100%
same,per cent of control,SRPK1 (human),100%
same,per cent of control,CHEK2 (human),63%
same,per cent of control,ULK3 (human),100%
same,per cent of control,FYN (human),35%
same,per cent of control,DAPK2 (human),100%
same,per cent of control,CSNK1G1 (human),100%
same,per cent of control,RPS6KA1 KD2 (human),77%
same,per cent of control,STK3 (human),100%
same,per cent of control,MAPK12 (human),42%
same,per cent of control,MAPK1 (human),100%
same,per cent of control,STK16 (human),94%
same,per cent of control,HIPK1 (human),17%
same,per cent of control,[1],0.45%
same,per cent of control,RPS6KA6 KD2 (human),16%
same,per cent of control,[2],0.25%
same,per cent of control,AURKC (human),12%
same,per cent of control,HIPK3 (human),1.2%
same,per cent of control,MARK4 (human),93%
same,per cent of control,LIMK2 (human),53%
same,per cent of control,PDGFRB (human),0%
same,per cent of control,MAP2K1 (human),95%
same,per cent of control,MAPK4 (human),79%
same,per cent of control,YES1 (human),41%
CNC(=O)c1cc(Oc2ccc(NC(=O)Nc3ccc(Cl)c(C(F)(F)F)c3)cc2)cc[n+]1[O-],per cent of control,TAOK1 (human),11%
same,per cent of control,LATS2 (human),100%
same,per cent of control,RPS6KA2 KD1 (human),43%
same,per cent of control,MAP2K7 (human),63%
same,per cent of control,NEK5 (human),100%
same,per cent of control,PRPF4B (human),99%
same,per cent of control,MAP2K5 (human),0.1%
same,per cent of control,MARK2 (human),87%
same,per cent of control,PDPK1 (human),94%
same,per cent of control,CDK17 (human),7.7%
same,per cent of control,MAPK9 (human),0.05%
same,per cent of control,MAP3K11 (human),89%
same,per cent of control,HIPK4 (human),2.3%
same,per cent of control,FGFR4 (human),39%
same,per cent of control,ERN1 (human),66%
same,per cent of control,YSK4 (human),0.1%
same,per cent of control,MYO3A (human),14%
same,per cent of control,NUAK2 (human),85%
same,per cent of control,SRPK1 (human),100%
same,per cent of control,CHEK2 (human),21%
same,per cent of control,ULK3 (human),82%
same,per cent of control,FYN (human),41%
same,per cent of control,DAPK2 (human),100%
same,per cent of control,CSNK1G1 (human),96%
same,per cent of control,RPS6KA1 KD2 (human),58%
same,per cent of control,STK3 (human),100%
same,per cent of control,MAPK12 (human),0.1%
same,per cent of control,MAPK1 (human),100%
same,per cent of control,STK16 (human),81%
same,per cent of control,HIPK1 (human),44%
same,per cent of control,[1],0.45%
same,per cent of control,RPS6KA6 KD2 (human),6.4%
same,per cent of control,[2],0.2%
same,per cent of control,AURKC (human),15%
same,per cent of control,HIPK3 (human),5.1%
same,per cent of control,MARK4 (human),100%
same,per cent of control,LIMK2 (human),59%
same,per cent of control,PDGFRB (human),0%
same,per cent of control,MAP2K1 (human),80%
same,per cent of control,MAPK4 (human),78%
same,per cent of control,YES1 (human),68%
